The values that follow come from US20250108023A1, “Products for Masking Bitterness” (The Third People's Hospital of Henan Province, priority 2023, published 2025).

This test deals with T1, sodium ion channel of Trpm5 bitter receptor (Mus musculus, UniProt Q9JJH7).
T1 construct: Put the removed tongue in a 2 ml EP tube, add 1-1.5 ml of 0.25% trypsin solution; from tissue; host or cells: cells dissociated with trypsin from mouse tongue
T1 sequence (Q9JJH7 1-1158): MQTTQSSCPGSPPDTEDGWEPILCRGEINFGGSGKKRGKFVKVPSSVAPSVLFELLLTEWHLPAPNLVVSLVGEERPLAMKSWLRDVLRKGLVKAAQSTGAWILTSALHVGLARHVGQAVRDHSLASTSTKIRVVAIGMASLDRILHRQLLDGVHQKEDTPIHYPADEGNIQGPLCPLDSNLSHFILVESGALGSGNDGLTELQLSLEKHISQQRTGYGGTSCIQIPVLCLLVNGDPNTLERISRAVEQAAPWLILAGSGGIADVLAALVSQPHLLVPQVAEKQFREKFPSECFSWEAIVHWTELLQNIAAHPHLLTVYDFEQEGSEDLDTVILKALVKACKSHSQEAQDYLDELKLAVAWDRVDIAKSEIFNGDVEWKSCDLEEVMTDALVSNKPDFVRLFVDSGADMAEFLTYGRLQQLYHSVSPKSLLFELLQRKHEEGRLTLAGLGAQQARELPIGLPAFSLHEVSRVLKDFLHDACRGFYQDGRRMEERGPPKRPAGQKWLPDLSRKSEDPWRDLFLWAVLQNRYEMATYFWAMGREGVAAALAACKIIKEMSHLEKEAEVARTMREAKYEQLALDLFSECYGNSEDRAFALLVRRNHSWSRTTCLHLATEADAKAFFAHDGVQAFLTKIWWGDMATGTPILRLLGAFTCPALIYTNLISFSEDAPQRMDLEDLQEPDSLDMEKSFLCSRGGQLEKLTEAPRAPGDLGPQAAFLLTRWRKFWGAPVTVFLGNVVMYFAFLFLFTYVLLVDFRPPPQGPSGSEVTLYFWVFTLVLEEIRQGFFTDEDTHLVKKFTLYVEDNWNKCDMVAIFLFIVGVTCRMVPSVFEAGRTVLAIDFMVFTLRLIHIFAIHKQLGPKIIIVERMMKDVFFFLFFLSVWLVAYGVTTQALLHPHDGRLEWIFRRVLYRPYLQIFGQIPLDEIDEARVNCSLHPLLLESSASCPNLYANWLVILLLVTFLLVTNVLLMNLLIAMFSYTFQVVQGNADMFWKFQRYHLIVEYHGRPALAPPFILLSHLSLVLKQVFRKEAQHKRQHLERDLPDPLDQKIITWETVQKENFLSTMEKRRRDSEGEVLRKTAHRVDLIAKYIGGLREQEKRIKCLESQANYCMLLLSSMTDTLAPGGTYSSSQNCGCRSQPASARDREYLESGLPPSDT
Kind of test: Immunofluorescence experiment of sodium ion channels in mouse tongue cells stimulated with bitter agent. The class given is cell-based, mice. Particulars: for blocking effect on the sodium ion channel (result analysis in words): judged from change of sodium ion fluorescence after bitter drug.

The mark [1] stands for this setting: Bitterant 60 s (2% metronidazole solution).
[2] abbreviates: Bitterant 120 s (2% metronidazole solution).
Setting [3] is: Bitterant 180 s (2% metronidazole solution).
Where [4] appears, read: Initial (before addition of drug), sodium ion dye ENG-2 AM.

Regarding `CC(C)=CCCC(C)=CC=O` [Citral, citral], the “blocking effect on the sodium ion channel (result analysis in words)” value is recorded as “can block the sodium ion channel of Trpm5 bitter receptor”. In addition, under “Addition of drugs”, the “average value of fluorescence brightness” value is listed as 29.943 and the “average value of fluorescence brightness, base number removed” value (“average value … base number removed” below) is −0.335. Also, under setting [1], the “average value of fluorescence brightness” value came out at 29.766 and the “average value … base number removed” value was −0.512. For the same compound, under setting [2], the “average value of fluorescence brightness” value was determined as 29.742 and the “average value … base number removed” value is on record as −0.536. Further, under setting [3], the “average value of fluorescence brightness” value is 29.647 and the “average value … base number removed” value was −0.631. The “average value … base number removed” value (Initial) is on record as 0. The “average value of fluorescence brightness” value under setting [4] was 30.278.
For `C=CCc1ccc(OC(C)=O)c(OC)c1` [Eugenol acetate], the “blocking effect on the sodium ion channel (result analysis in words)” value is recorded as “can block the sodium ion channel of Trpm5 bitter receptor”. Under “Addition of drugs”, the “average value of fluorescence brightness” value is 28.103 and the “average value … base number removed” value is −0.125. For the same compound, under setting [1], the “average value of fluorescence brightness” value is reported as 27.797 and the “average value … base number removed” value is on record as −0.431. Under setting [2], the “average value of fluorescence brightness” value is 26.368 and the “average value … base number removed” value is on record as −1.86. In addition, under setting [3], the “average value of fluorescence brightness” value is 26.329 and the “average value … base number removed” value was −1.899. For the same compound, the “average value … base number removed” value (Initial) amounted to 0. In addition, under setting [4], the “average value of fluorescence brightness” value was determined as 28.228.
